Results: paper PMC6032158, “Structure–Activity Relationship of Piplartine and Synthetic Analogues against Schistosoma mansoni and Cytotoxicity to Mammalian Cells” (International Journal of Molecular Sciences, 2018)

Key:
[1] = system: mouse BALB/cN macrophage (J774A.1) cell line; assay: Cell viability by flow cytometry in macrophages; conditions: 24 h, 25, 100 and 400 µg/mL, vs DMEM control
[2] = system: murine fibroblast (NIH-3T3) cells; assay: MTT cytotoxicity assay in murine fibroblasts; assay type: cell-based; conditions: for effect on NIH-3T3 cell viability (in words): MTT, 24 h exposure, 25 to 800 µg/mL; for Emax at 800 µg/mL: Mus musculus, NIH3T3, 24 h, decrease in cell viability at the maximum concentration tested (800 μg/mL), NIH-3T3, 24 h
Description: Next, the medium was removed and various concentrations (25–800 µg/mL) of samples reconstituted in 3% DMSO were applied. DMSO (3%) was used as a control. The plates were incubated for 24 h. Next, 15 µL of MTT solution (5 mg/mL in phosphate buffer) was added to each well and the plates were incubated for 2 h. Medium was discarded and 100 µL of DMSO was added to each well. Absorbance was determined using a spectrophotometer with a microplate reader at 595 nm (Molecular Devices Corporation, Sunnyvale, CA, USA).

[3] = system: 49-day-old S. mansoni adult worms; assay: In vitro experiments with adult worms of S. mansoni (mortality, motor activity); assay type: cell-based, Schistosoma mansoni; conditions: for Dead Worms (%) F / Motor Activity Reduction (%) Significant F / Motor Activity Reduction (%) Slight F: female worms; for Dead Worms (%) M / Motor Activity Reduction (%) Significant M / Motor Activity Reduction (%) Slight M: male worms; for activity against S. mansoni adult worms (in words): analogues 50, 25, 10 and 5 μM, piplartine 5 and 10 μM, up to 96 h
Description: The Belo Horizonte (BH) strain of S. mansoni was maintained in Biomphalaria glabrata snails and Mesocricetus auratus hamsters at the Adolfo Lutz Institute (São Paulo, Brazil) according to standard procedures. Detailed methods for the infection of molluscs and hamsters, as well as for the recovery of parasites, were as described previously. Briefly, the intermediate host snails were exposed to light for approximately 3 h and cercariae of S. mansoni were subsequently harvested. […] All animals were handled in strict accordance with good animal practice as defined by the Animal Use Ethics Committee. The preparations and culture of schistosomes was performed as previously described. Briefly, hamsters were killed 49 days after infection for the recovery of adult schistosomes. Next, fresh adult worm pairs (male and female) were washed and placed in a 24-well culture plate (TPP, St. […] Adult schistosomes were maintained continuously in medium (with or without drugs) for 96 h as described below. In vitro assays in S. mansoni adults were performed with mated males and females. The worm pairs obtained from the infusion hamsters were washed twice with RPMI 1640 medium containing 200 U/mL penicillin, 200 μg/mL streptomycin and 2 μg/mL amphotericin B (Vitrocell, Campinas, Brazil). The mated parasites were then transferred into 24-well cell culture plates (TPP, St. […] Cultures of adult worms were monitored by microscopy or magnifying glass. The effect of the drug was assessed with emphasis on changes in worm motor activity and death of worms as previously described.

COc1cc(/C=C/C(=O)N(C(=O)NC2CCCCC2)C2CCCCC2)cc(OC)c1OC [Compound 1M]
effect on J774A.1 cell viability (in words) [1]: significantly altered (p < 0.05) cell viability in comparison with the negative control, but not in a toxic manner
effect on NIH-3T3 cell viability (in words) [2]: considerable reduction in cell viability at concentrations of 400 and 800 μg/mL
Emax at 800 µg/mL [2]: 70.9 ± 1.2%
Dead Worms (%) F ([3]; 5 µM, 24 h): 0%
Motor Activity Reduction (%) Significant F ([3]; 5 µM, 24 h): 0%
Motor Activity Reduction (%) Slight F ([3]; 5 µM, 24 h): 0%
Dead Worms (%) M ([3]; 5 µM, 24 h): 0%
Motor Activity Reduction (%) Significant M ([3]; 5 µM, 24 h): 0%
Motor Activity Reduction (%) Slight M ([3]; 5 µM, 24 h): 0%
Dead Worms (%) F ([3]; 5 µM, 48 h): 0%
Motor Activity Reduction (%) Significant F ([3]; 5 µM, 48 h): 0%
Motor Activity Reduction (%) Slight F ([3]; 5 µM, 48 h): 0%
Dead Worms (%) M ([3]; 5 µM, 48 h): 0%
Motor Activity Reduction (%) Significant M ([3]; 5 µM, 48 h): 0%
Motor Activity Reduction (%) Slight M ([3]; 5 µM, 48 h): 0%
Dead Worms (%) F ([3]; 5 µM, 72 h): 0%
Motor Activity Reduction (%) Significant F ([3]; 5 µM, 72 h): 0%
Motor Activity Reduction (%) Slight F ([3]; 5 µM, 72 h): 0%
Dead Worms (%) M ([3]; 5 µM, 72 h): 0%
Motor Activity Reduction (%) Significant M ([3]; 5 µM, 72 h): 0%
Motor Activity Reduction (%) Slight M ([3]; 5 µM, 72 h): 0%
Dead Worms (%) F ([3]; 5 µM, 96 h): 0%
Motor Activity Reduction (%) Significant F ([3]; 5 µM, 96 h): 0%
Motor Activity Reduction (%) Slight F ([3]; 5 µM, 96 h): 0%
Dead Worms (%) M ([3]; 5 µM, 96 h): 0%
Motor Activity Reduction (%) Significant M ([3]; 5 µM, 96 h): 0%
Motor Activity Reduction (%) Slight M ([3]; 5 µM, 96 h): 0%
Dead Worms (%) F ([3]; 10 µM, 24 h): 0%
Motor Activity Reduction (%) Significant F ([3]; 10 µM, 24 h): 0%
Motor Activity Reduction (%) Slight F ([3]; 10 µM, 24 h): 0%
Dead Worms (%) M ([3]; 10 µM, 24 h): 0%
Motor Activity Reduction (%) Significant M ([3]; 10 µM, 24 h): 0%
Motor Activity Reduction (%) Slight M ([3]; 10 µM, 24 h): 0%
Dead Worms (%) F ([3]; 10 µM, 48 h): 0%
Motor Activity Reduction (%) Significant F ([3]; 10 µM, 48 h): 0%
Motor Activity Reduction (%) Slight F ([3]; 10 µM, 48 h): 0%
Dead Worms (%) M ([3]; 10 µM, 48 h): 0%
Motor Activity Reduction (%) Significant M ([3]; 10 µM, 48 h): 0%
Motor Activity Reduction (%) Slight M ([3]; 10 µM, 48 h): 0%
Dead Worms (%) F ([3]; 10 µM, 72 h): 0%
Motor Activity Reduction (%) Significant F ([3]; 10 µM, 72 h): 0%
Motor Activity Reduction (%) Slight F ([3]; 10 µM, 72 h): 0%
Dead Worms (%) M ([3]; 10 µM, 72 h): 0%
Motor Activity Reduction (%) Significant M ([3]; 10 µM, 72 h): 0%
Motor Activity Reduction (%) Slight M ([3]; 10 µM, 72 h): 0%
Dead Worms (%) F ([3]; 10 µM, 96 h): 0%
Motor Activity Reduction (%) Significant F ([3]; 10 µM, 96 h): 0%
Motor Activity Reduction (%) Slight F ([3]; 10 µM, 96 h): 0%
Dead Worms (%) M ([3]; 10 µM, 96 h): 0%
Motor Activity Reduction (%) Significant M ([3]; 10 µM, 96 h): 0%
Motor Activity Reduction (%) Slight M ([3]; 10 µM, 96 h): 0%
Dead Worms (%) F ([3]; 25 µM, 24 h): 0%
Motor Activity Reduction (%) Significant F ([3]; 25 µM, 24 h): 0%
Motor Activity Reduction (%) Slight F ([3]; 25 µM, 24 h): 0%
Dead Worms (%) M ([3]; 25 µM, 24 h): 0%
Motor Activity Reduction (%) Significant M ([3]; 25 µM, 24 h): 0%
Motor Activity Reduction (%) Slight M ([3]; 25 µM, 24 h): 0%
Dead Worms (%) F ([3]; 25 µM, 48 h): 0%
Motor Activity Reduction (%) Significant F ([3]; 25 µM, 48 h): 0%
Motor Activity Reduction (%) Slight F ([3]; 25 µM, 48 h): 0%
Dead Worms (%) M ([3]; 25 µM, 48 h): 0%
Motor Activity Reduction (%) Significant M ([3]; 25 µM, 48 h): 0%
Motor Activity Reduction (%) Slight M ([3]; 25 µM, 48 h): 0%
Dead Worms (%) F ([3]; 25 µM, 72 h): 0%
Motor Activity Reduction (%) Significant F ([3]; 25 µM, 72 h): 0%
Motor Activity Reduction (%) Slight F ([3]; 25 µM, 72 h): 0%
Dead Worms (%) M ([3]; 25 µM, 72 h): 0%
Motor Activity Reduction (%) Significant M ([3]; 25 µM, 72 h): 0%
Motor Activity Reduction (%) Slight M ([3]; 25 µM, 72 h): 0%
Dead Worms (%) F ([3]; 25 µM, 96 h): 0%
Motor Activity Reduction (%) Significant F ([3]; 25 µM, 96 h): 0%
Motor Activity Reduction (%) Slight F ([3]; 25 µM, 96 h): 0%
Dead Worms (%) M ([3]; 25 µM, 96 h): 0%
Motor Activity Reduction (%) Significant M ([3]; 25 µM, 96 h): 0%
Motor Activity Reduction (%) Slight M ([3]; 25 µM, 96 h): 0%
Dead Worms (%) F ([3]; 50 µM, 24 h): 0%
Motor Activity Reduction (%) Significant F ([3]; 50 µM, 24 h): 0%
Motor Activity Reduction (%) Slight F ([3]; 50 µM, 24 h): 0%
Dead Worms (%) M ([3]; 50 µM, 24 h): 0%
Motor Activity Reduction (%) Significant M ([3]; 50 µM, 24 h): 0%
Motor Activity Reduction (%) Slight M ([3]; 50 µM, 24 h): 0%
Dead Worms (%) F ([3]; 50 µM, 48 h): 0%
Motor Activity Reduction (%) Significant F ([3]; 50 µM, 48 h): 0%
Motor Activity Reduction (%) Slight F ([3]; 50 µM, 48 h): 0%
Dead Worms (%) M ([3]; 50 µM, 48 h): 0%
Motor Activity Reduction (%) Significant M ([3]; 50 µM, 48 h): 0%
Motor Activity Reduction (%) Slight M ([3]; 50 µM, 48 h): 0%
Dead Worms (%) F ([3]; 50 µM, 72 h): 0%
Motor Activity Reduction (%) Significant F ([3]; 50 µM, 72 h): 0%
Motor Activity Reduction (%) Slight F ([3]; 50 µM, 72 h): 0%
Dead Worms (%) M ([3]; 50 µM, 72 h): 0%
Motor Activity Reduction (%) Significant M ([3]; 50 µM, 72 h): 0%
Motor Activity Reduction (%) Slight M ([3]; 50 µM, 72 h): 0%
Dead Worms (%) F ([3]; 50 µM, 96 h): 0%
Motor Activity Reduction (%) Significant F ([3]; 50 µM, 96 h): 0%
Motor Activity Reduction (%) Slight F ([3]; 50 µM, 96 h): 0%
Dead Worms (%) M ([3]; 50 µM, 96 h): 0%
Motor Activity Reduction (%) Significant M ([3]; 50 µM, 96 h): 0%
Motor Activity Reduction (%) Slight M ([3]; 50 µM, 96 h): 0%
activity against S. mansoni adult worms (in words) [3]: did not present biological activity against the S. mansoni parasite

CCCCOC(=O)/C=C/C=C/c1cc(OC)c(OC)c(OC)c1 [Compound 19A]
effect on J774A.1 cell viability (in words) [1]: did not reduce cell viability at the same concentrations
effect on NIH-3T3 cell viability (in words) [2]: did not exert significant effects on mammalian cell viability at the tested concentrations
Emax at 800 µg/mL [2]: < 50%
Dead Worms (%) F ([3]; 25 µM, 24 h): 0%
Motor Activity Reduction (%) Significant F ([3]; 25 µM, 24 h): 0%
Motor Activity Reduction (%) Slight F ([3]; 25 µM, 24 h): 0%
Dead Worms (%) M ([3]; 25 µM, 24 h): 0%
Motor Activity Reduction (%) Significant M ([3]; 25 µM, 24 h): 0%
Motor Activity Reduction (%) Slight M ([3]; 25 µM, 24 h): 0%
Dead Worms (%) F ([3]; 50 µM, 24 h): 0%
Motor Activity Reduction (%) Significant F ([3]; 50 µM, 24 h): 0%
Motor Activity Reduction (%) Slight F ([3]; 50 µM, 24 h): 0%
Dead Worms (%) M ([3]; 50 µM, 24 h): 0%
Motor Activity Reduction (%) Significant M ([3]; 50 µM, 24 h): 0%
Motor Activity Reduction (%) Slight M ([3]; 50 µM, 24 h): 0%
Dead Worms (%) F ([3]; 50 µM, 48 h): 0%
Motor Activity Reduction (%) Significant F ([3]; 50 µM, 48 h): 0%
Motor Activity Reduction (%) Slight F ([3]; 50 µM, 48 h): 0%
Dead Worms (%) M ([3]; 50 µM, 48 h): 0%
Motor Activity Reduction (%) Significant M ([3]; 50 µM, 48 h): 0%
Motor Activity Reduction (%) Slight M ([3]; 50 µM, 48 h): 0%
Dead Worms (%) F ([3]; 50 µM, 72 h): 0%
Motor Activity Reduction (%) Significant F ([3]; 50 µM, 72 h): 0%
Motor Activity Reduction (%) Slight F ([3]; 50 µM, 72 h): 0%
Dead Worms (%) M ([3]; 50 µM, 72 h): 0%
Motor Activity Reduction (%) Significant M ([3]; 50 µM, 72 h): 0%
Motor Activity Reduction (%) Slight M ([3]; 50 µM, 72 h): 0%
Dead Worms (%) F ([3]; 50 µM, 96 h): 0%
Motor Activity Reduction (%) Significant F ([3]; 50 µM, 96 h): 0%
Motor Activity Reduction (%) Slight F ([3]; 50 µM, 96 h): 0%
Dead Worms (%) M ([3]; 50 µM, 96 h): 0%
Motor Activity Reduction (%) Significant M ([3]; 50 µM, 96 h): 0%
Motor Activity Reduction (%) Slight M ([3]; 50 µM, 96 h): 0%
activity against S. mansoni adult worms (in words) [3]: loss of biological activity against S. mansoni
